Source: US8486374B2, “Hydrophilic, non-aqueous pharmaceutical carriers and compositions and uses” (Foamix Ltd., priority 2004, dated 2013)
Counter-ions that a name gives are not always drawn. Like-named read-outs stand apart in the source and are kept apart here.

Legend:
[1] = anti-inflammatory steroids at typical concentration in topical products (triamcinolone acetonide 0.025%-0.1% medium, 0.5% high); cited from earlier work
[2] = Chemical stability: amount of active agent in foam by HPLC on storage; type: physicochemical
Protocol: The amount of active agent present is analyzed in foam expelled from various pressurized canisters containing foam formulations using HPLC. Analysis is carried out at zero time and at appropriate time intervals thereafter. The canisters are stored in controlled temperature incubators at 5° C., at 25° C., at, 40° C. and at 50° C. At appropriate time intervals canisters are removed and the amount of active agent in the foam sample is measured. […] All samples were stored at 50° C. for 4 weeks, in order to assess their stability. The following table provides the results of this short-term stability study, which indicated high compatibility between the polyol composition and the steroid drugs, which are known to be temperature-sensitive.

[3] = Shakability of the composition; type: physicochemical
Excerpt: ‘Shakability’ means that the composition contains some or sufficient flow to allow the composition to be mixed or remixed on shaking. That is, it has fluid or semi fluid properties. A breakable foam is that is thermally stable, yet breaks under sheer force.
‘Shakability’ means that the composition contains some or sufficient flow to allow the composition to be mixed or remixed on shaking. That is, it has fluid or semi fluid properties. In some very limited cases it may still be possible to have a foamable composition which is flowable but not apparently shakable.

[4] = Foam appearance (color, odor, form); type: physicochemical; design: key to ODOR: No odor (N.O.); key to COLOR: white (W)
[5] = cited from earlier work
candida albicans = test: Comparative in-vitro antifungal activity (Petri dish spreading); type: cell-based
Excerpt: An exemplary case for the inclusion of an anti-infective agent in a hygroscopic composition is provided herewith. […] Thus, combining an antifungal agent in a hygroscopic composition results in an expansion of the spectrum of infective strains that can benefit form the therapy, and furthermore, in can render an improved effect of such a composition on mixed infections or in infections that are not accurately diagnosed.
A comparative in-vitro study was set to evaluate the effect of Composition A, consisting of 2% terbinafine, 95.3% gr. polyethylene glycol, 0.5% hydroxypropyl cellulose and 2.2% steareth-2, in comparison with Composition B (an oil in water emulsion containing 2% terbinafine) and Composition C a commercial 1% bifonazole cream.
Three fungal strains (microsporum canis, trichophyton mentagrophytes and trichophyton rubrum) and one yeast (candida albicans) were seeded in the center of a Petri dish, and then, were surrounded by a film containing each of the compositions, using a swab, soaked with each of the compositions. The proliferation and spreading of the microorganisms was followed up for 14 day by visual and photographic observations.

[6] = active agent in stock of PEG-400 97.5, hydroxypropyl cellulose 0.5, steareth 2 2.0 (first Example 29)
[7] = active agent in stock of propylene glycol 91, stearyl alcohol 2, Klucel EF 2, laureth-4 2, glyceryl monostearate/PEG 100 stearate 3 (second Example 29)

Row | Structure (SMILES) | Relative Potency [1] | SHAKABILITY [3, 6] | SHAKABILITY [3, 7] | COLOR [4, 6] | ODOR [4, 6] | COLOR [4, 7] | ODOR [4, 7] | also measured
1 | CC1(C)O[C@@H]2C[C@H]3[C@@H]4C[C@H](F)C5=CC(=O)C=C[C@]5(C)[C@@]4(F)[C@@H](O)C[C@]3(C)[C@]2(C(=O)CO)O1 [Fluocinolone Acetonide] | Medium Potency | – | – | – | – | – | – | –
2 | CC1(C)O[C@@H]2C[C@H]3[C@@H]4CCC5=CC(=O)CC[C@]5(C)[C@@]4(F)[C@@H](O)C[C@]3(C)[C@]2(C(=O)CCl)O1 [Halcinonide] | High Potency | – | – | – | – | – | – | –
3 | CC(=O)OCC(=O)[C@@]1(O)CC[C@H]2[C@@H]3CCC4=CC(=O)CC[C@]4(C)[C@H]3[C@@H](O)C[C@@]21C [Hydrocortison Acetate] | Low Potency | – | – | – | – | – | – | –
4 | CCCC(=O)O[C@]1(C(=O)CO)CC[C@H]2[C@@H]3CCC4=CC(=O)CC[C@]4(C)[C@H]3[C@@H](O)C[C@@]21C [Hydrocortison Butyrate] | – | – | – | – | – | – | – | % Degradation after 4 weeks at 50° C. ([2]; steroid in TECH-PG 032, stored at 50° C. for 4 weeks): 2.6%; % Degradation after 4 weeks at 50° C. ([2]; steroid in TECH-PG 033, stored at 50° C. for 4 weeks): 2.8%
5 | C[C@]12CCC(=O)C=C1CC[C@@H]1[C@@H]2[C@@H](O)C[C@@]2(C)[C@H]1CC[C@]2(O)C(=O)CO [Hydrocortisone] | Low Potency | – | – | – | – | – | – | –
6 | CC(=O)N1CCN(c2ccc(OCC3COC(Cn4ccnc4)(c4ccc(Cl)cc4Cl)O3)cc2)CC1 (stereo not shown) [Ketoconazole] | – | Yes | Yes | W | N.O | W | N.O | –
7 | CCC(=O)O[C@]1(C(=O)COC(C)=O)CC[C@H]2[C@@H]3C[C@H](C)C4=CC(=O)C=C[C@]4(C)[C@H]3[C@@H](O)C[C@@]21C [Methylprednisolone aceponate] | High Potency | – | – | – | – | – | – | –
8 | C[C@@H]1C[C@H]2[C@@H]3CCC4=CC(=O)C=C[C@]4(C)[C@@]3(Cl)[C@@H](O)C[C@]2(C)[C@@]1(OC(=O)c1ccco1)C(=O)CCl [Mometasone furoate] | Medium Potency | – | – | – | – | – | – | –
9 | C/C(=C\C(=O)OCCCCCCCCC(=O)O)C[C@@H]1OC[C@H](C[C@@H]2O[C@H]2[C@@H](C)[C@H](C)O)[C@@H](O)[C@H]1O [Mupirocin] | – | Yes | Yes | W | N.O | W | N.O | solubility ([5]; in mineral oil and other commonly used ointment solvents): practically insoluble
10 | CC1(C)C(C=C(Cl)Cl)C1C(=O)OCc1cccc(Oc2ccccc2)c1 (stereo not drawn) [Permethrin BPC (cis:trans 25:75), Permethrin] | – | Yes | Yes | W | N.O | O.W | No | –
11 | CN1C(C(=O)Nc2ccccn2)=C(O)c2ccccc2S1(=O)=O [Piroxicam] | – | Yes | Yes | Light | N.O | O.W | No | –
12 | CCOC(=O)O[C@]1(C(=O)COC(=O)CC)CC[C@H]2[C@@H]3CCC4=CC(=O)C=C[C@]4(C)[C@H]3[C@@H](O)C[C@@]21C [Prednicarbate] | Medium Potency | – | – | – | – | – | – | –
13 | O=C(O)c1ccccc1O [Salicylic acid] | – | Yes | Yes | W | N.O | O.W | No | –
14 | CN(C/C=C/C#CC(C)(C)C)Cc1cccc2ccccc12 [Terbinafine HCl] | – | Yes | Yes | W | N.O | W | No | –
15 | CN(C/C=C/C#CC(C)(C)C)Cc1cccc2ccccc12 [terbinafine] | – | – | – | – | – | – | – | inhibition of the spreading of candida albicans (candida albicans; control preparation, same concentration in an emulsion base): not effective; inhibition of the spreading of candida albicans (candida albicans; dissolved in a hygroscopic carrier): effectively inhibited the spreading; solubility ([5]; in common formulation excipients): hard to dissolve
